For series [1] the following is noted: orally administered to rats; cited from earlier work.
For the next series, the system named is MRSA. The experiment in a line: Inhibition zone method, antimicrobial activity. The format is cell-based, Methicillin-resistant Staphylococcus aureus (MRSA). An excerpt: (§1) Inhibition zone method was followed in order to test the antimicrobial efficiency of the selected nanoemulsion composite mixture samples against 6 chosen strains of gram-positive bacterial strains, 6 strains of gram-negative bacterial strains 6 strains of fungi as shown in the following list;
(§2) The following formulae were defined: • Formula 1 (F1): Green tea essential oil • Formula 2 (F2): Chitosan solution • Formula 3 (F3): benzalkonium solution • Formula 4 (F4): control (antimicrobial compound) • Formula 5 (F5): Green tea essential oil+Chitosan solution • Formula 6 (F6): The final formula of the nanoemulsion composite mixture
(§3) Inhibition zone method was followed in order to test the antimicrobial efficiency of the 6 selected nanoemulsion composite mixture samples against 6 chosen strains of gram-positive bacterial strains, 6 strains of gram-negative bacterial strains 6 strains of fungi.

The subject of the next series is Klebsella pneumonia. Kind of series: Inhibition zone method, antimicrobial activity. The format is cell-based.
Description: as §1, §2, §3

The next series concerns Staphylococcus aureus. The experiment in a line: Inhibition zone method, antimicrobial activity. The class given is cell-based.
Description: as §1, §2, §3

The subject of a further series is Proteus vulgaris. The experiment in a line: Inhibition zone method, antimicrobial activity. The format is cell-based.
Description: as §1, §2, §3

For the next series, the system named is Streptococcus mutants. Kind of series: Inhibition zone method, antimicrobial activity. The format is cell-based.
Description: as §1, §2, §3

A further series concerns Eisherecia coli. The experiment in a line: Inhibition zone method, antimicrobial activity. The class given is cell-based.
Description: as §1, §2, §3

A further series deals with Enterobacter colacae. Kind of series: Inhibition zone method, antimicrobial activity. The format is cell-based.
Description: as §1, §2, §3

For another series, the system named is Candida albicans. The experiment in a line: Inhibition zone method, antimicrobial activity. The class given is cell-based.
Description: as §1, §2, §3

The subject of another series is Aspergillus niger. Kind of series: Inhibition zone method, antimicrobial activity. The class given is cell-based.
Description: as §1, §2, §3

The next series relates to Penicillium italicum. Kind of series: Inhibition zone method, antimicrobial activity. The format is cell-based.
Description: as §1, §2, §3

For a further series, the system named is Pseudomonas aeruginosa. The experiment in a line: Inhibition zone method, antimicrobial activity. The format is cell-based.
Description: as §1, §2, §3

The subject of the next series is Bacillus subtilis. The experiment in a line: Inhibition zone method, antimicrobial activity. The class given is cell-based.
Description: as §1, §2, §3

The subject of a further series is Aspergillus fumigatus. The experiment in a line: Inhibition zone method, antimicrobial activity. The class given is cell-based.
Description: as §1, §2, §3

The next series deals with Fusarium moniliform. The experiment in a line: Inhibition zone method, antimicrobial activity. The class given is cell-based.
Description: as §1, §2, §3

In a further series the test system is Salmonella Typhium. Kind of series: Inhibition zone method, antimicrobial activity. The class given is cell-based.
Description: as §1, §2, §3

The subject of the next series is Micrococcus spp. The experiment in a line: Inhibition zone method, antimicrobial activity. The format is cell-based.
Description: as §1, §2, §3

The next series concerns Enterococcus faecalis. Kind of series: Inhibition zone method, antimicrobial activity. The format is cell-based.
Description: as §1, §2, §3

The test system of a further series is Geotricum candiaum. Kind of series: Inhibition zone method, antimicrobial activity. The class given is cell-based, Geotricum candidum.
Description: as §1, §2, §3

Benzalkonium chloride [BAC]: in [1], the “Lethal dose 50 (LD50)” value was 234 to 525 mg/kg.

On to benzalkonium [Formula F3], for which the “Antimicrobial activity expressed as % inhibition” value was determined as 90% in the series on MRSA; 80% in the series with Klebsella pneumonia; 50% in the series with Staphylococcus aureus; 95% in the series with Proteus vulgaris; 45% in the series with Streptococcus mutants; 63% in the series with Eisherecia coli. Besides, the “Antimicrobial activity expressed as % inhibition” value in the series with Enterobacter colacae is reported as 94%; in the series with Candida albicans it was 50%; in the series on Aspergillus niger, 70%; in the series with Penicillium italicum, 96%; in the series on Pseudomonas aeruginosa it was 66%; in the series on Bacillus subtilis, 72%. Besides, the “Antimicrobial activity expressed as % inhibition” value in the series with Aspergillus fumigatus is 52%; in the series with Fusarium moniliform it was 90%; with Salmonella Typhium, 41%; in the series on Micrococcus spp. it was 64%; in the series with Enterococcus faecalis it was 60%; in the series on Geotricum candiaum it was 89%.

The values are drawn from patent US20260256134A1, “NanoEmulsion Composite Mixture of Essential Oils with Biodegradable Polymers and Co-Surfactants for Antimicrobial Activities and Enhanced Thermal Stability and Antioxidant Activities” (The American University in Cairo, priority 2022, published 2026).
